{"source": "ChEMBL document CHEMBL4325871", "about": "(Eur J Med Chem, 2019)", "key": {"[1]": {"target": "T1, Homeodomain-interacting protein kinase 1 (Homo sapiens, UniProt Q86Z02)"}, "[2]": {"target": "T2, Serine/threonine-protein kinase VRK2 (Homo sapiens, UniProt Q86Y07)", "T2 sequence (Q86Y07 whole entry)": "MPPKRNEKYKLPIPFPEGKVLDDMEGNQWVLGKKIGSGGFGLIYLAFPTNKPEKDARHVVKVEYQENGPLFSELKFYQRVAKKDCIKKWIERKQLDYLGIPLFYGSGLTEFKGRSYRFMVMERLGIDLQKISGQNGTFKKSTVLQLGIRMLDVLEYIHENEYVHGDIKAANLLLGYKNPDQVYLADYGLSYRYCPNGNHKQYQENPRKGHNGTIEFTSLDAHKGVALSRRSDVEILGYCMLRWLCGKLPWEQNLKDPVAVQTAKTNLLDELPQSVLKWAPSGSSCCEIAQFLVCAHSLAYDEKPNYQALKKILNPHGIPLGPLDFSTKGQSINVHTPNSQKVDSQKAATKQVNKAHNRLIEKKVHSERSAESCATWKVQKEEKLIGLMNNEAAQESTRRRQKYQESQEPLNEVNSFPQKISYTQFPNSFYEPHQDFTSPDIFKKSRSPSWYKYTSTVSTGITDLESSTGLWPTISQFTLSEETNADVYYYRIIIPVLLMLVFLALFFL"}, "[3]": {"target": "T2, Serine/threonine-protein kinase VRK2", "experiment": "Inhibition of human VRK2 assessed as residual activity at 100 uM using casein as substrate by [gamma-33P]-ATP assay relative to control"}, "[4]": {"target": "T3, Mitogen-activated protein kinase kinase kinase kinase 1 (Homo sapiens, UniProt Q92918)"}, "[5]": {"target": "T3, Mitogen-activated protein kinase kinase kinase kinase 1", "experiment": "Inhibition of human HPK1 assessed as residual activity at 100 uM using MBP as substrate by [gamma-33P]-ATP assay relative to control"}, "[6]": {"target": "Serine/threonine-protein kinase VRK1 (Homo sapiens, UniProt Q99986)"}, "[7]": {"target": "T4, Mitogen-activated protein kinase kinase kinase 8 (Homo sapiens, UniProt P41279)", "T4 sequence (P41279 whole entry)": "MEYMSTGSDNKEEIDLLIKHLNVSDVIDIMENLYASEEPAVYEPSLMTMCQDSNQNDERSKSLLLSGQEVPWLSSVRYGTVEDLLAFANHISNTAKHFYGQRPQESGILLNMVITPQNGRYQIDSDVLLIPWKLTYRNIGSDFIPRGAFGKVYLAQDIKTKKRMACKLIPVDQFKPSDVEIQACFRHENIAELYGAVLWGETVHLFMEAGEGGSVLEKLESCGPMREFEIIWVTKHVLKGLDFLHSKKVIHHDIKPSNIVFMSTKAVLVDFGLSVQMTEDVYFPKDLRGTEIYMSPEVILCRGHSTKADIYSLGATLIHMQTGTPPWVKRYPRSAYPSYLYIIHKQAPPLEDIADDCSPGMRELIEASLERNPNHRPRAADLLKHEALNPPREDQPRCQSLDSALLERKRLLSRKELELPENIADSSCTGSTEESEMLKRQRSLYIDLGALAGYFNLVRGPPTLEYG", "experiment": "Inhibition of human COT1 assessed as residual activity at 100 uM using MEK1 as substrate by [gamma-33P]-ATP assay relative to control"}, "[8]": {"target": "T1, Homeodomain-interacting protein kinase 1", "experiment": "Inhibition of human HIPK1 assessed as residual activity at 100 uM using MBP as substrate by [gamma-33P]-ATP assay relative to control"}, "[9]": {"target": "T4, Mitogen-activated protein kinase kinase kinase 8"}, "[10]": {"target": "Tyrosine-protein kinase JAK3 (Homo sapiens) (UniProt P52333)", "experiment": "Inhibition of human JAK3 assessed as residual activity at 100 uM using poly[Glu:Tyr] (4:1) as substrate by [gamma-33P]-ATP assay relative to control"}, "[11]": {"target": "T5, Tau-tubulin kinase 1 (Homo sapiens, UniProt Q5TCY1)", "T5 sequence (Q5TCY1 whole entry)": "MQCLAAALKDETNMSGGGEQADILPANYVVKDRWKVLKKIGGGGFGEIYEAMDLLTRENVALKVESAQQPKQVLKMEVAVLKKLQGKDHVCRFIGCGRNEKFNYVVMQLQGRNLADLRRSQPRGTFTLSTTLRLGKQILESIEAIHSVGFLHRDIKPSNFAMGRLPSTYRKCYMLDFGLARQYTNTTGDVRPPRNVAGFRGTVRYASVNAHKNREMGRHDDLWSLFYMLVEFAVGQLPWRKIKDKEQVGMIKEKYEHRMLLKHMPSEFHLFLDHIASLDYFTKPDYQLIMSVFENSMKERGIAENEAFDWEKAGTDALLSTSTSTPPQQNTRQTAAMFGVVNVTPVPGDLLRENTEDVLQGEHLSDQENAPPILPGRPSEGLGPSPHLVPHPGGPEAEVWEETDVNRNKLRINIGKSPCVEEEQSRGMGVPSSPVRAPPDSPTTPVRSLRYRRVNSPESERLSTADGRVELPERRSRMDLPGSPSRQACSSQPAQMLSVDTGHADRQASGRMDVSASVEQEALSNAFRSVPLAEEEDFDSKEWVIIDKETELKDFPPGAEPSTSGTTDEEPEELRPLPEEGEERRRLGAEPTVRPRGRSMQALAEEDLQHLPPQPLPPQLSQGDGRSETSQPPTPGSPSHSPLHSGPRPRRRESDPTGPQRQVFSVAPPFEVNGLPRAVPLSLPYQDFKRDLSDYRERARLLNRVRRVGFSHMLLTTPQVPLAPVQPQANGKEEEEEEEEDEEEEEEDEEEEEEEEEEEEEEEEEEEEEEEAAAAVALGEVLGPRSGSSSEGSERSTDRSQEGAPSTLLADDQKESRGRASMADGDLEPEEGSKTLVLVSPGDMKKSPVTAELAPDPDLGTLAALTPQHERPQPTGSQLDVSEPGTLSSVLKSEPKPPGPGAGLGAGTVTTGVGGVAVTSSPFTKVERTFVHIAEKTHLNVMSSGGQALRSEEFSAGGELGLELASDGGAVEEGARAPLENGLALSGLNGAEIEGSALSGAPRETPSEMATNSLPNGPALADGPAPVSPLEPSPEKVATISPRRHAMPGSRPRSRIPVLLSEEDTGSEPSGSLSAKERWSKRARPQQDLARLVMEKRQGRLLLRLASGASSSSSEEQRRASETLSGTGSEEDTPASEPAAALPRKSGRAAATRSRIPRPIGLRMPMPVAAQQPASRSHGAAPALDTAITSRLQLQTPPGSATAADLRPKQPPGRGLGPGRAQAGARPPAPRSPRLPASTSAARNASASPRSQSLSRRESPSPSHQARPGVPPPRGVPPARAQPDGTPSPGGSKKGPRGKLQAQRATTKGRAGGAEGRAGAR"}, "[12]": {"target": "T6, Serine/threonine-protein kinase WNK3 (Homo sapiens, UniProt Q9BYP7)", "T6 sequence (Q9BYP7 whole entry)": "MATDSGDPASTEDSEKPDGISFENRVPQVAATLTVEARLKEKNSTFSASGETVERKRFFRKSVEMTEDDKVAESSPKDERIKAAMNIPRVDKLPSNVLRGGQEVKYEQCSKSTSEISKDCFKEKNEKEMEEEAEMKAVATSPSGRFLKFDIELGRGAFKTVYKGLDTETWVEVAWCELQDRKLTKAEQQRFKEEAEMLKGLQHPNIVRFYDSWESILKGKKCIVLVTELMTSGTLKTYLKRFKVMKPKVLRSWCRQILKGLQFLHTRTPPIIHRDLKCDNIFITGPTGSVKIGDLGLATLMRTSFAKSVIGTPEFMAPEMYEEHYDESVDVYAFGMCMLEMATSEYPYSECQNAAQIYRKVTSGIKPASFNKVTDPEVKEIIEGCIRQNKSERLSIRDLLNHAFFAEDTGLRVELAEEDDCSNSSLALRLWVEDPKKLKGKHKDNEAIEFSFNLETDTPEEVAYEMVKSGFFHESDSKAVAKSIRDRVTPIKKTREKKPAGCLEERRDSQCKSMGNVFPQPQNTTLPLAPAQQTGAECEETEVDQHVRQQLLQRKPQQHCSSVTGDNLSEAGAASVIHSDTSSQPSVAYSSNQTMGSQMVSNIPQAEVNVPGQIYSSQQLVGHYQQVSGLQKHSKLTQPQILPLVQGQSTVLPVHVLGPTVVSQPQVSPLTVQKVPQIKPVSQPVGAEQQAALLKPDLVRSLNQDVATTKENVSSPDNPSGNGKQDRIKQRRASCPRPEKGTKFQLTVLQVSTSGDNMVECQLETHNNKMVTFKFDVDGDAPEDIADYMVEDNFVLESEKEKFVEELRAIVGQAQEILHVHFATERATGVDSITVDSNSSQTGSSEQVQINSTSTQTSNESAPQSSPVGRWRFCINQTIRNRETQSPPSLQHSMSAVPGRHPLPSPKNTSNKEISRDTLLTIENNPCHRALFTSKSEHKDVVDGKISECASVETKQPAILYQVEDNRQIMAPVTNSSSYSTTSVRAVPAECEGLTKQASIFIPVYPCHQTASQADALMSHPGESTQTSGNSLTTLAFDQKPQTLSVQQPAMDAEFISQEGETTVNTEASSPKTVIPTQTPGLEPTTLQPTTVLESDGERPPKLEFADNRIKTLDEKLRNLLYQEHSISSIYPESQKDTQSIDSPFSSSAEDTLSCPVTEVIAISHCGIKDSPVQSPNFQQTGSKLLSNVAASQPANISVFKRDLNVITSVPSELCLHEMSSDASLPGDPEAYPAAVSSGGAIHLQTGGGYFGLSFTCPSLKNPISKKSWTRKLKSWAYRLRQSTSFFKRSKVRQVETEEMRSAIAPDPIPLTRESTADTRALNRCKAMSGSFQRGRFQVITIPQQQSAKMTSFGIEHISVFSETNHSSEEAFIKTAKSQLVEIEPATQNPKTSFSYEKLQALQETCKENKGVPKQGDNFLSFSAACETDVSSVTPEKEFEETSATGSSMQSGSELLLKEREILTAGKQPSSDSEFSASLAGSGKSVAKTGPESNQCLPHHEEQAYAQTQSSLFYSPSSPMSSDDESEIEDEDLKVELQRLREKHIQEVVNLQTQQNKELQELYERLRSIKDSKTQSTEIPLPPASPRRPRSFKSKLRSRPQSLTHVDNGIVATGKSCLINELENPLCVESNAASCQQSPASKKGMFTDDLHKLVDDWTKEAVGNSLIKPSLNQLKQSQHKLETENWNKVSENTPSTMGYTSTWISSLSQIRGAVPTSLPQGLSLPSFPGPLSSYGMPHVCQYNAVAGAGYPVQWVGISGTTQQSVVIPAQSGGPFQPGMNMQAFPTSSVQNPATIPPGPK"}, "[13]": {"target": "Wee1-like protein kinase (Homo sapiens) (UniProt P30291)", "experiment": "Inhibition of human WEE1 assessed as residual activity at 100 uM using MBP as substrate by [gamma-33P]-ATP assay relative to control"}, "[14]": {"target": "T6, Serine/threonine-protein kinase WNK3", "experiment": "Inhibition of human WNK3 assessed as residual activity at 100 uM using MBP as substrate by [gamma-33P]-ATP assay relative to control"}, "[15]": {"target": "T7, Mitogen-activated protein kinase kinase kinase 20 (Homo sapiens, UniProt Q9NYL2)"}, "[16]": {"target": "T7, Mitogen-activated protein kinase kinase kinase 20", "experiment": "Inhibition of human ZAK assessed as residual activity at 100 uM using MBP as substrate by [gamma-33P]-ATP assay relative to control"}, "[17]": {"target": "T8, Casein kinase II subunit alpha (Homo sapiens, UniProt P68400)"}, "[18]": {"target": "T9, Receptor-interacting serine/threonine-protein kinase 3 (Homo sapiens, UniProt Q9Y572)"}, "[19]": {"target": "Dual specificity tyrosine-phosphorylation-regulated kinase 4 (Homo sapiens) (UniProt Q9NR20)", "experiment": "Inhibition of human DYRK4 assessed as residual activity at 100 uM using RRRFRPASPLRGPPK as substrate by [gamma-33P]-ATP assay relative to control"}, "[20]": {"target": "Dual specificity tyrosine-phosphorylation-regulated kinase 4 (Homo sapiens, UniProt Q9NR20)"}, "[21]": {"target": "Serine/threonine-protein kinase A-Raf (Homo sapiens, UniProt P10398)"}, "[22]": {"target": "T8, Casein kinase II subunit alpha", "experiment": "Inhibition of human CK2A assessed as residual activity at 100 uM using RRRDDDSDDD as substrate by [gamma-33P]-ATP assay relative to control"}, "[23]": {"target": "T10, Serine/threonine-protein kinase A-Raf (Homo sapiens) (UniProt P10398)", "T10 sequence (whole entry)": "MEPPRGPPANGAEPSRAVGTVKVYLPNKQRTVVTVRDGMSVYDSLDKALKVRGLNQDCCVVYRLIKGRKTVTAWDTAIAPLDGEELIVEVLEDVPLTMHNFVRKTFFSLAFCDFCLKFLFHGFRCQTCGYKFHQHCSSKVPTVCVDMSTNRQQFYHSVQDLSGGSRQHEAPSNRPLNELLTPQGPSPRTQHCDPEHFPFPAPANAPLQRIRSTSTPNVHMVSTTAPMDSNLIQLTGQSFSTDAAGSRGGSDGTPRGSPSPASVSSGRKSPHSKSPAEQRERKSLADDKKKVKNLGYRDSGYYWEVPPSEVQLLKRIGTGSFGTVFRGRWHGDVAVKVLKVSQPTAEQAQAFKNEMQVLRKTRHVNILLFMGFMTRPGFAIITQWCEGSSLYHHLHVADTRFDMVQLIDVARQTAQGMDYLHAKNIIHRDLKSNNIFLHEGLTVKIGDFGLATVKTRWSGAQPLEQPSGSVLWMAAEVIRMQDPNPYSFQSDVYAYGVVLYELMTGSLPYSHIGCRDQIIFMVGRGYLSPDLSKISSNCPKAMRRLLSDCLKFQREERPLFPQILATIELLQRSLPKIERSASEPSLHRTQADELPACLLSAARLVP", "experiment": "Inhibition of human ARAF assessed as residual activity at 100 uM using MEK1 as substrate by [gamma-33P]-ATP assay relative to control"}, "[24]": {"target": "T9, Receptor-interacting serine/threonine-protein kinase 3", "experiment": "Inhibition of human RIPK3 assessed as residual activity at 100 uM using MBP as substrate by [gamma-33P]-ATP assay relative to control"}, "[25]": {"target": "T11, Serine/threonine-protein kinase Nek6 (Homo sapiens, UniProt Q9HC98)", "T11 sequence (Q9HC98 whole entry)": "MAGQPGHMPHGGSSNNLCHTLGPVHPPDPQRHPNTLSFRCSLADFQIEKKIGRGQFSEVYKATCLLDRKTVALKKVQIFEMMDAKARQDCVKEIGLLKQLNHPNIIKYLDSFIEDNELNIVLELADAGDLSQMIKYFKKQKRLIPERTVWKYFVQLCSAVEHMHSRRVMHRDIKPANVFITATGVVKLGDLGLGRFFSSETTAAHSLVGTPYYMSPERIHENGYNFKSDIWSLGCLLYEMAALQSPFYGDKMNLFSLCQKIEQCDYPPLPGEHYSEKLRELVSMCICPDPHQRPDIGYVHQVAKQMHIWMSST", "experiment": "Inhibition of human NEK6 assessed as residual activity at 100 uM using casein as substrate by [gamma-33P]-ATP assay relative to control"}, "[26]": {"target": "T12, Serine/threonine-protein kinase Nek7 (Homo sapiens, UniProt Q8TDX7)", "experiment": "Inhibition of human NEK7 assessed as residual activity at 100 uM using casein as substrate by [gamma-33P]-ATP assay relative to control"}, "[27]": {"target": "T11, Serine/threonine-protein kinase Nek6"}, "[28]": {"target": "T12, Serine/threonine-protein kinase Nek7"}, "[29]": {"target": "T5, Tau-tubulin kinase 1", "experiment": "Inhibition of human TTBK1 assessed as residual activity at 100 uM using MBP as substrate by [gamma-33P]-ATP assay relative to control"}, "[30]": {"target": "Tau-tubulin kinase 2 (Homo sapiens) (UniProt Q6IQ55)", "experiment": "Inhibition of human TTBK2 assessed as residual activity at 100 uM using MBP as substrate by [gamma-33P]-ATP assay relative to control"}, "[31]": {"target": "Mitogen-activated protein kinase 11 (Homo sapiens) (UniProt Q15759)", "experiment": "Inhibition of human p38beta assessed as residual activity at 100 uM using MBP as substrate by [gamma-33P]-ATP assay relative to control"}, "[32]": {"target": "Bone morphogenetic protein receptor type-1A (Homo sapiens) (UniProt P36894)", "experiment": "Inhibition of human ALK3 assessed as residual activity at 100 uM using casein as substrate by [gamma-33P]-ATP assay relative to control"}, "[33]": {"target": "Activin receptor type-1B (Homo sapiens) (UniProt P36896)", "experiment": "Inhibition of human ALK4 assessed as residual activity at 100 uM using casein as substrate by [gamma-33P]-ATP assay relative to control"}, "[34]": {"target": "Activin receptor type-1-like (Homo sapiens) (UniProt P37023)", "experiment": "Inhibition of human ALK1 assessed as residual activity at 100 uM using casein as substrate by [gamma-33P]-ATP assay relative to control"}, "[35]": {"target": "T13, TGF-beta receptor type-2 (Homo sapiens, UniProt P37173)", "T13 sequence (P37173 whole entry)": "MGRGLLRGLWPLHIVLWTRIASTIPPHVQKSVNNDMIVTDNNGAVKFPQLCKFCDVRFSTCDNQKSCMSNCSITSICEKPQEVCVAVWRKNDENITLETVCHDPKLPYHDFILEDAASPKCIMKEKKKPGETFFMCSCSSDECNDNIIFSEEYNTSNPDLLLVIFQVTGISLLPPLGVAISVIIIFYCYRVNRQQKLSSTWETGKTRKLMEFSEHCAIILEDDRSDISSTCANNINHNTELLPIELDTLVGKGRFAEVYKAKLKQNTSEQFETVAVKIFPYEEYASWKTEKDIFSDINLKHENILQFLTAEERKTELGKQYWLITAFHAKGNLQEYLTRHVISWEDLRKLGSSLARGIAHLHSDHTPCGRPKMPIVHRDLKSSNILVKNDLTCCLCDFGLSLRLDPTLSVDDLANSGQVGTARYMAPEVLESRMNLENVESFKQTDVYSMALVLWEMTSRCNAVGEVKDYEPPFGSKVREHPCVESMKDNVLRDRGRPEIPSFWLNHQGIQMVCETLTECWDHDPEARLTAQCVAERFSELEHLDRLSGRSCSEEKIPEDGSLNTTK", "experiment": "Inhibition of human TGFBR2 assessed as residual activity at 100 uM using MBP as substrate by [gamma-33P]-ATP assay relative to control"}, "[36]": {"target": "Bone morphogenetic protein receptor type-1B (Homo sapiens) (UniProt O00238)", "experiment": "Inhibition of human ALK6 assessed as residual activity at 100 uM using casein as substrate by [gamma-33P]-ATP assay relative to control"}, "[37]": {"target": "T13, TGF-beta receptor type-2"}}, "data": [{"smiles": "Cn1cc(C2=C(c3cn(CCCSC(=N)N)c4ccccc34)C(=O)NC2=O)c2ccccc21", "note": "[BISINDOLYLMALEIMIDE IX]", "values": [{"measurement": "IC50", "setting": "[1]", "result": 0.621, "unit": "µM"}, {"measurement": "IC50", "setting": "[2]", "result": 16.4, "unit": "µM"}, {"measurement": "Activity", "setting": "[3]", "result": "< 65", "unit": "%"}, {"measurement": "IC50", "setting": "[4]", "result": 0.0529, "unit": "µM"}, {"measurement": "Activity", "setting": "[5]", "result": "< 65", "unit": "%"}, {"measurement": "IC50", "setting": "[6]", "result": 0.743, "unit": "µM"}, {"measurement": "Activity", "setting": "[7]", "result": "< 65", "unit": "%"}, {"measurement": "Activity", "setting": "[8]", "result": "< 65", "unit": "%"}, {"measurement": "IC50", "setting": "[9]", "result": 9.95, "unit": "µM"}]}, {"smiles": "CCOc1nc(NC(=O)Cc2cc(OC)ccc2OC)cc(N)c1C#N", "values": [{"measurement": "Activity", "setting": "[10]", "result": "< 65", "unit": "%"}]}, {"smiles": "Oc1ccc(-c2nc(-c3ccncc3)c(-c3ccc(F)cc3)[nH]2)cc1", "note": "[SB-202190]", "values": [{"measurement": "IC50", "setting": "[11]", "result": 47.2, "unit": "µM"}]}, {"smiles": "C=CCn1c(=O)c2cnc(Nc3ccc(N4CCN(C)CC4)cc3)nc2n1-c1cccc(C(C)(C)O)n1", "note": "[ADAVOSERTIB]", "values": [{"measurement": "IC50", "setting": "[12]", "result": 2.31, "unit": "µM"}, {"measurement": "Activity", "setting": "[13]", "result": "< 65", "unit": "%"}, {"measurement": "Activity", "setting": "[14]", "result": "< 65", "unit": "%"}]}, {"smiles": "O=C1Nc2ccc(I)cc2C1=Cc1cc(Br)c(O)c(Br)c1", "note": "[GW305074X]", "values": [{"measurement": "IC50", "setting": "[15]", "result": 1.89, "unit": "µM"}, {"measurement": "Activity", "setting": "[16]", "result": "< 65", "unit": "%"}, {"measurement": "IC50", "setting": "[17]", "result": 0.279, "unit": "µM"}, {"measurement": "IC50", "setting": "[18]", "result": 5.4, "unit": "µM"}, {"measurement": "Activity", "setting": "[19]", "result": "< 65", "unit": "%"}, {"measurement": "IC50", "setting": "[20]", "result": 4.38, "unit": "µM"}, {"measurement": "IC50", "setting": "[21]", "result": 0.0146, "unit": "µM"}, {"measurement": "Activity", "setting": "[22]", "result": "< 65", "unit": "%"}, {"measurement": "Activity", "setting": "[23]", "result": "< 65", "unit": "%"}, {"measurement": "Activity", "setting": "[24]", "result": "< 65", "unit": "%"}]}, {"smiles": "O=C1Nc2ccc3ncsc3c2/C1=C/c1c[nH]cn1", "values": [{"measurement": "Activity", "setting": "[25]", "result": "< 65", "unit": "%"}, {"measurement": "Activity", "setting": "[26]", "result": "< 65", "unit": "%"}, {"measurement": "IC50", "setting": "[27]", "result": 59.8, "unit": "µM"}, {"measurement": "IC50", "setting": "[28]", "result": 7.28, "unit": "µM"}]}, {"smiles": "Oc1ccc(-c2nc(-c3ccc(F)cc3)c(-c3ccncc3)[nH]2)cc1", "values": [{"measurement": "Activity", "setting": "[29]", "result": "< 65", "unit": "%"}, {"measurement": "Activity", "setting": "[30]", "result": "< 65", "unit": "%"}, {"measurement": "Activity", "setting": "[31]", "result": "< 65", "unit": "%"}]}, {"smiles": "c1ccc2c(-c3cnn4cc(-c5ccc(N6CCNCC6)cc5)cnc34)ccnc2c1", "values": [{"measurement": "Activity", "setting": "[32]", "result": "< 65", "unit": "%"}, {"measurement": "Activity", "setting": "[33]", "result": "< 65", "unit": "%"}, {"measurement": "Activity", "setting": "[34]", "result": "< 65", "unit": "%"}, {"measurement": "Activity", "setting": "[35]", "result": "< 65", "unit": "%"}, {"measurement": "Activity", "setting": "[36]", "result": "< 65", "unit": "%"}, {"measurement": "IC50", "setting": "[37]", "result": 0.156, "unit": "µM"}]}]}
